{"source": "patent US7816338B2", "about": "“Compositions and methods for inhibiting car gene expression by RNA interference” (Sumitomo Chemical Company, Limited, priority 2007, dated 2010)", "key": {"[1]": {"tested_on": "liver", "experiment": "Liver wet weight in rats (Example 10)", "format": "in vivo, rat", "details": "group treated with PB and control siRNA (Cont)", "procedure": "(§1) The wet weight of the liver in the rats to which siRNA (CAR) or control siRNA (Cont) was administered by the methods described in (1) to (3) of Example 2 is measured by the method described in (5) of Example 2. As a result, the liver weight is increased in the group treated with PB and control siRNA (Cont) as compared to the case of the untreated animal group."}, "[2]": {"tested_on": "liver", "experiment": "Centrilobular cell hypertrophy, histopathological examination of the liver (Example 11)", "format": "in vivo, rat", "details": "rats; group treated with PB and control siRNA (Cont)", "procedure": "as §1, with “Histopathological examination” for “The wet weight”, “performed” for “measured”, “centrilobular cell hypertrophy” for “the liver weight”"}, "[3]": {"tested_on": "CYP2B dependent pentoxyresorufin O-depentylation activity", "experiment": "CYP2B dependent PROD (pentoxyresorufin O-depentylation activity) in hepatocytes (Example 6)", "format": "cell-based, rat", "details": "PB and control siRNA (Cont) treatment; 72 hours after siRNA", "procedure": "Then, the culture medium is replaced with 2 mL of William's culture medium containing 7 μM of 7-pentoxyresorufin and 7 μM of dicumarol. The culture medium is incubated at 37° C. for 4 hours, and then the culture medium is recovered. The cells are mixed with 1000 U of β-glucronidase (bovine liver-derived) and 50 mM of sodium acetate solution (pH 5), which is left at 37° C. for 3 hours. Measurement of pentoxyresorufin O-depentylation activity is performed by measuring the amount of fluorescence per unit solution. Further, the measurement is carried out at an excitation wavelength of 530 nm and a fluorescence wavelength of 585 nm using a fluorophotometer (F-4010, manufactured by Hitachi). In evaluation of the results, the total amount of protein in the cells in which the substrate was treated is measured by the Protein assay kit (Bio-Rad) and the production amount of resorufin per unit protein (amount of pentoxyresorufin O-depentylation) is calculated on the basis of the calibration curve of resorufin. […] As a result, pentoxyresorufin O-depentylation activity is enhanced by PB and control siRNA (Cont) treatment as compared to the case of the untreated cells."}, "[4]": {"tested_on": "CYP2B1 mRNA", "experiment": "CYP2B1 gene expression in PB-treated primary hepatocyte cultured cells (Example 5 (3))"}}}
{"smiles": "CCC1(c2ccccc2)C(=O)NC(=O)NC1=O", "note": "[PB, Phenobarbital]", "values": [{"measurement": "liver weight as compared to the untreated animal group", "setting": "[1]", "result": "increased"}, {"measurement": "centrilobular cell hypertrophy as compared to the untreated animal group", "setting": "[2]", "result": "increased"}, {"measurement": "pentoxyresorufin O-depentylation activity as compared to the untreated cells", "setting": "[3]", "result": "enhanced"}, {"measurement": "CYP2B1 mRNA expression increase compared to cells untreated with PB", "setting": "[4]; cells treated with PB (50 nM) and control siRNA(Cont)", "result": "about fivefold"}, {"measurement": "CYP2B1 expression increase by PB treatment compared to cells untreated with compound", "setting": "[4]; cells which inhibited CAR (siRNA(CAR)), PB 50 nM", "result": "about twofold"}]}
